Source: patent US20060281689A1, “Method for modulating activity of HCV protease through use of a novel HCV protease inhibitor to reduce duration of treatment period” (Schering Corporation, priority 2005, published 2006)

Columns and labels:
hepatitis C virus [1] = experiment: Parallel group study in patients afflicted with hepatitis C virus, 14 days, mean viral load (HCV RNA); type: in vivo; conditions: either dose (200 mg or 400 mg three times a day orally) in combination with PEG-Intron 1.5 mcg/kg/week
Experimental: Preferably, in the practice of the invention, the concentration of HCV-RNA is quantitatively measured by research-based reverse transcriptase polymerase chain reaction (RT-PCR) assay well known to the skilled clinician. Specifically, the Hepatitis C virus (HCV) RNA is measured by extracting total RNA from plasma or serum samples and using an in-house real-time reverse transcriptase polymerase chain reaction (RT-PCR) assay. The amplification target is the 5′-untranslated region (UTR) of the HCV genome. An internal RNA control is added to each sample to assess the efficiency of RNA extraction. Appropriate negative and positive controls are added in each assay run. The assay method has been validated against the WHO International Standard for HCV. HCV RNA amount in a sample is reported as copies of HCV RNA per mL of sample and also as HCV IU per mL of sample. Results for sample at or above 100 copies of HCV RNA per mL are denoted as POS. On the other hand, ND stands for <100 copies of HCV RNA or <29 IU of HCV per mL of sample. […] With respect to quantifying HCV RNA with the rt-PCR methodology referred to herein, one (1) copy of HCV RNA equals 0.29 IU, such that 100 copies of HCV RNA per milliliter of plasma is 29 International Units per milliliter of plasma. […] HCV genotype is determined by sequencing the PCR amplified DNA fragment of the 5′-UTR of the HCV genome. […]

hepatitis C virus [2] = experiment: Model of viral dynamics modified with Total ε: theoretical effectiveness rate and viral load over a 48 week treatment period; set-up: species or system patients
Excerpt: The effectiveness of suppression of viral production through treatment in accordance with the methods of the present invention can be calculated through a combination pharmacokinetic and pharmacodynamic analysis with a modified version of the absorption and elimination model described in the art. See Powers K A. et al. (Seminars in Liver Disease, 23 Suppl. 1:13-8, 2003). The absorption and elimination model, which incorporates the Neumann et al. model of viral dynamics, calculates simulated changes in drug concentration and effectiveness of single drug treatment in Equations […], 6, and 7. See Powers K A. et al. (Seminars in Liver Disease, 2003, 23 Suppl. 1:13-8), and Neumann A U, Lam N P, Dahari H, et al. (Science 1998, 282: 103-107). […]
Equation 7 incorporates the effects of a delay between a drug binding to its receptor and beginning its biological action. […] Thus, for t>τ, [formula] the effectiveness rate, ε, of a drug at time, t, is calculated by Equation 7.
For the present invention, the Neumann et al. model of Equation 1 and the absorption and elimination model of Equations 5, 6, and 7, is modified to incorporate calculations for monitoring the effectiveness rate of suppressing viral production by multiple drug treatment through combination therapy with the HCV protease inhibitor and HCV agents including interferon, interferon pegylated, and/or ribavirin. The absorption and elimination model in Equations 5, 6, and 7 is modified by including an effectiveness rate of a combination therapy, Total ε, which is based upon combining the individual efficacy, ε, over time, t, as calculated by Equation 7, for each drug used in the combination therapy of the present invention. The effectiveness rate, Total ε, is calculated with the formula […], where ε(t)Pl is the effectiveness of a HCV protease inhibitor and where ε(t)Ag is the effectiveness of an HCV agent, both independently calculated by Equation 7. […]

SMILES: CC(C)(C)NC(=O)N[C@H](C(=O)N1CC2C([C@H]1C(=O)NC(CC1CCC1)C(=O)C(N)=O)C2(C)C)C(C)(C)C (some centres unmarked) [HCV protease inhibitor]
- viral load in the second week of treatment (hepatitis C virus [1]): continued to decline
- decrease in mean viral load at the end of the first week of treatment (hepatitis C virus [1]; compared with PEG-Intron alone): much steeper decrease in mean viral load
- theoretical effectiveness rate, ε, over time, t (hepatitis C virus [2]; 200 mg three times a day orally with PEG-Intron 1.5 mcg/kg/week subcutaneously, 48 weeks): 0.989
- time of treatment until viral load is below 29 IU/ml plasma (100 copies per ml plasma) (hepatitis C virus [2]; 200 mg three times a day orally with PEG-Intron 1.5 mcg/kg/week subcutaneously, theoretical calculations): approximately 14 weeks
- effectiveness rate, ε, over time, t (hepatitis C virus [2]; 400 mg three times a day orally with PEG-Intron 1.5 mcg/kg/week subcutaneously, 48 weeks): 0.997
